The source made the active and inactive calls. The calls are words filed in the database; no cut-off is given here.
Legend:
Aurora kinase A = target: T1, Aurora kinase A (Homo sapiens, UniProt O14965); experiment: Inhibitory activity against Aurora A kinase
T1 sequence (O14965 whole entry): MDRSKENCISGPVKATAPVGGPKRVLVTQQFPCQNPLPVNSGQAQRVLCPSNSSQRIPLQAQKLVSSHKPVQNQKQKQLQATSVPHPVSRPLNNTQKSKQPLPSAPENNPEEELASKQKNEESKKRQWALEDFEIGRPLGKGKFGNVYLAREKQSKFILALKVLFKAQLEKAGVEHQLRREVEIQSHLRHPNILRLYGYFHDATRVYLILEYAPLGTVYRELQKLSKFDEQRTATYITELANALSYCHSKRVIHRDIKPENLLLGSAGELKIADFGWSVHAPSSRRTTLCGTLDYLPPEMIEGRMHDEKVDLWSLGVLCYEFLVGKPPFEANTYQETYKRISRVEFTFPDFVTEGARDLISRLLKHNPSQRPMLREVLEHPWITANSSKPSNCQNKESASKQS

[1] = target: T2, Receptor-type tyrosine-protein kinase FLT3 (Homo sapiens, UniProt P36888); experiment: Inhibitory activity against FLT3 kinase in a HTRF assay
T2 sequence (P36888 whole entry): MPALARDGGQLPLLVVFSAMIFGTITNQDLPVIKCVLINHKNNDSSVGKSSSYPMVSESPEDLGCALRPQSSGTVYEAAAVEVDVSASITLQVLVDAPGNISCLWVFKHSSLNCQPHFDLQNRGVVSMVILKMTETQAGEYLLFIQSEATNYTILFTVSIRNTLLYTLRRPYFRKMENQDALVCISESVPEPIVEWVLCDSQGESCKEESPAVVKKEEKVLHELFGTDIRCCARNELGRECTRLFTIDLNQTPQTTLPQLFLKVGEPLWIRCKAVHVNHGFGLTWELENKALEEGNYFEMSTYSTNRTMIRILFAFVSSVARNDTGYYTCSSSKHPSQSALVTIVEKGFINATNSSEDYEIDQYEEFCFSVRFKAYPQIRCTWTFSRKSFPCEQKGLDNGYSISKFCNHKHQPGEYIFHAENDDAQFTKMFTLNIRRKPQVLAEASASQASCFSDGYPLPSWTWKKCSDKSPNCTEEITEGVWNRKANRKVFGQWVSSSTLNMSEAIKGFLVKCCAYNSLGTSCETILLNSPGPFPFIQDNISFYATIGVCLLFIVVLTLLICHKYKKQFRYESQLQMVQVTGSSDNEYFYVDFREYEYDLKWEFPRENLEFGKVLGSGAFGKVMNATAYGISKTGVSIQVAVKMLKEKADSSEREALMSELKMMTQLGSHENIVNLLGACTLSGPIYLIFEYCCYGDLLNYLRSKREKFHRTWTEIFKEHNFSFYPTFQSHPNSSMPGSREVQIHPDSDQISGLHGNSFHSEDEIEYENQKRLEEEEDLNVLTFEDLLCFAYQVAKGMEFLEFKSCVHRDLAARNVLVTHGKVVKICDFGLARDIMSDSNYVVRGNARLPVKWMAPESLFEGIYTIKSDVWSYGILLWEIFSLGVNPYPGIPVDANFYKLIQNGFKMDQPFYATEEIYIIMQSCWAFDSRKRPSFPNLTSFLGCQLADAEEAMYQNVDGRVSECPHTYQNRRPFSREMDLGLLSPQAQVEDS

[2] = target: Epidermal growth factor receptor (Homo sapiens) (UniProt P00533); experiment: Inhibitory activity against EGFR at 25 uM
[3] = target: Hepatocyte growth factor receptor (Homo sapiens) (UniProt P08581); experiment: Inhibitory activity against c-Met at 25 uM
[4] = target: T3, Cytoplasmic tyrosine-protein kinase BMX (Homo sapiens) (UniProt P51813); experiment: Inhibitory activity against ETK at 25 uM
T3 sequence (whole entry): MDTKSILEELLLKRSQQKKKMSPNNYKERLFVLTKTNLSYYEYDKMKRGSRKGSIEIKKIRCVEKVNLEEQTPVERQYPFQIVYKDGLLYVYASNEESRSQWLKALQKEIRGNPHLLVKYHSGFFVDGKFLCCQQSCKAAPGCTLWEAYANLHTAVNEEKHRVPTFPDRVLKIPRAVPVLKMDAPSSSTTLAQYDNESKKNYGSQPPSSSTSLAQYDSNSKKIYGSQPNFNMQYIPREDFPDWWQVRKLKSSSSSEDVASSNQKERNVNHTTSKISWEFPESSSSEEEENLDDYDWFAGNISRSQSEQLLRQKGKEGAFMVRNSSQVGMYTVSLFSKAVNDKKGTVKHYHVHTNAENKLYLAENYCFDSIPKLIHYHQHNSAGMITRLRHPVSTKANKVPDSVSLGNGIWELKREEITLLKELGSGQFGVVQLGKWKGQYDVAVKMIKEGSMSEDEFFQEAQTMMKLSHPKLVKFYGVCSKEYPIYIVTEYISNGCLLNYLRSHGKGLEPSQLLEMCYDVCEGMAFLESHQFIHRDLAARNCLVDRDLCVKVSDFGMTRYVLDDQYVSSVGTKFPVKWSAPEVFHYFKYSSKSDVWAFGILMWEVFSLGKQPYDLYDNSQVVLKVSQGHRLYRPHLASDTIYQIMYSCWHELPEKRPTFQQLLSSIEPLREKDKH

[5] = target: Vascular endothelial growth factor receptor 1 (Homo sapiens) (UniProt P17948); experiment: Inhibitory activity against FLT1 at 25 uM
Insulin receptor = Insulin receptor (Homo sapiens, UniProt P06213); experiment: Inhibitory activity against IR
[6] = target: Insulin-like growth factor 1 receptor (Homo sapiens) (UniProt P08069); experiment: Inhibitory activity against IGF1R at 25 uM
[7] = target: Vascular endothelial growth factor receptor 2 (Homo sapiens, UniProt P35968); experiment: Inhibitory activity against KDR
[8] = target: Fibroblast growth factor receptor 1 (Homo sapiens) (UniProt P11362); experiment: Inhibitory activity against FGF1R at 25 uM
Chain of Fibroblast growth factor receptor 1 (Homo sapiens) (P11362 22-822 limits assumed): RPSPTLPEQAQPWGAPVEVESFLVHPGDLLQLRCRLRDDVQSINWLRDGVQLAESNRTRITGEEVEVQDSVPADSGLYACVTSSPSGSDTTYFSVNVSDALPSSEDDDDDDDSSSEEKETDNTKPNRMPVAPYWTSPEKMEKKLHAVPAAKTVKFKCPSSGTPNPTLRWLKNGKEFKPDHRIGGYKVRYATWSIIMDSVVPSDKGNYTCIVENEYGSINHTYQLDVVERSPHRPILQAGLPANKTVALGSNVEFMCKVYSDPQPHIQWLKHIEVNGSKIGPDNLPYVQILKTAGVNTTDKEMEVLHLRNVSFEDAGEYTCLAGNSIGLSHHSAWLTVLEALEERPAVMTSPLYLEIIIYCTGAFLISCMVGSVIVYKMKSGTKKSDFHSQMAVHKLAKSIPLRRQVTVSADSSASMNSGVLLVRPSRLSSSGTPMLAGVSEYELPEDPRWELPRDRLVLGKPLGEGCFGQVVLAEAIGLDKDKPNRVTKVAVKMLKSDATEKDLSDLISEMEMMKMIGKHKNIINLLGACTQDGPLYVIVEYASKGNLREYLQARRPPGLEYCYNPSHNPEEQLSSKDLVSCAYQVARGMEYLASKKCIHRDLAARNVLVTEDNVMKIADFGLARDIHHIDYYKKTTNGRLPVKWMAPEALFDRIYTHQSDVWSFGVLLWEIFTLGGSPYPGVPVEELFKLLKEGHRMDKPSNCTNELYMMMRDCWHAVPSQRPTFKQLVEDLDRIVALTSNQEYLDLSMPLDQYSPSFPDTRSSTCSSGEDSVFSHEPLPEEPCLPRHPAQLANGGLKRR

Chain of Insulin-like growth factor 1 receptor (Homo sapiens) (P08069 31-736 limits assumed): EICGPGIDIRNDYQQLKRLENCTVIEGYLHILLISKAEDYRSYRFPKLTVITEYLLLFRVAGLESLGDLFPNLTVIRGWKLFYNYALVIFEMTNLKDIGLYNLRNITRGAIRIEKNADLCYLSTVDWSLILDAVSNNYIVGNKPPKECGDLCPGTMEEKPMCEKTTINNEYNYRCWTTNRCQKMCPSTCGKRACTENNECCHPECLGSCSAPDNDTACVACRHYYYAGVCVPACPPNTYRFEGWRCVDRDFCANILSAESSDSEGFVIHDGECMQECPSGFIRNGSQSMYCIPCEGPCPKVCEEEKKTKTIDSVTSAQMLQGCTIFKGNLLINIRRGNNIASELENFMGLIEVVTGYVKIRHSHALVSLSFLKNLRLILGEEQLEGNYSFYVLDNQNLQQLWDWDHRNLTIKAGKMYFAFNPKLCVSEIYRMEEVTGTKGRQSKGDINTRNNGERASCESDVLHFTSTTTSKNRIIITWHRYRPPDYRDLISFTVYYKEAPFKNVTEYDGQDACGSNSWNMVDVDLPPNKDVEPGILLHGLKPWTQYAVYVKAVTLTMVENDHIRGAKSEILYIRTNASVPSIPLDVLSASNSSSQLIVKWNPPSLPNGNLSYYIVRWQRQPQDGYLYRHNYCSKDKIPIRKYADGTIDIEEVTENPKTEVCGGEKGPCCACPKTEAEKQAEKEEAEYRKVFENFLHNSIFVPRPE
Chain of Insulin-like growth factor 1 receptor (Homo sapiens) (P08069 741-1367 limits assumed): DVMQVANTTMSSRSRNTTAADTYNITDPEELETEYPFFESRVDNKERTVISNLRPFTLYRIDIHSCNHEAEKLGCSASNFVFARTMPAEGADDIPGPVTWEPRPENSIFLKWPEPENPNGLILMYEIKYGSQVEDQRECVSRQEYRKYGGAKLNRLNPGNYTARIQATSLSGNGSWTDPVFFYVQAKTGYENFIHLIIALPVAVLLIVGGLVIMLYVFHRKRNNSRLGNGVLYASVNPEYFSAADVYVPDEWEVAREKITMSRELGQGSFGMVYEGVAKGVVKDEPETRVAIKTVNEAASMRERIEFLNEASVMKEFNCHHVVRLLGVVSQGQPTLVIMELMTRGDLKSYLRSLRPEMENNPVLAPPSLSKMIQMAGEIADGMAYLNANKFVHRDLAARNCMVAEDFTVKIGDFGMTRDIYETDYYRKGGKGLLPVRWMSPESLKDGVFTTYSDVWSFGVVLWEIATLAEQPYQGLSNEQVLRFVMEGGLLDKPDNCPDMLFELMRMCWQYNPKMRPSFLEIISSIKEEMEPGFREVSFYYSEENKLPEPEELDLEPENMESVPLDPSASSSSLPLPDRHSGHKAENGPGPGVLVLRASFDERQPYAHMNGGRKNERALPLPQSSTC
Chain of Insulin receptor (P06213 28-758 limits assumed): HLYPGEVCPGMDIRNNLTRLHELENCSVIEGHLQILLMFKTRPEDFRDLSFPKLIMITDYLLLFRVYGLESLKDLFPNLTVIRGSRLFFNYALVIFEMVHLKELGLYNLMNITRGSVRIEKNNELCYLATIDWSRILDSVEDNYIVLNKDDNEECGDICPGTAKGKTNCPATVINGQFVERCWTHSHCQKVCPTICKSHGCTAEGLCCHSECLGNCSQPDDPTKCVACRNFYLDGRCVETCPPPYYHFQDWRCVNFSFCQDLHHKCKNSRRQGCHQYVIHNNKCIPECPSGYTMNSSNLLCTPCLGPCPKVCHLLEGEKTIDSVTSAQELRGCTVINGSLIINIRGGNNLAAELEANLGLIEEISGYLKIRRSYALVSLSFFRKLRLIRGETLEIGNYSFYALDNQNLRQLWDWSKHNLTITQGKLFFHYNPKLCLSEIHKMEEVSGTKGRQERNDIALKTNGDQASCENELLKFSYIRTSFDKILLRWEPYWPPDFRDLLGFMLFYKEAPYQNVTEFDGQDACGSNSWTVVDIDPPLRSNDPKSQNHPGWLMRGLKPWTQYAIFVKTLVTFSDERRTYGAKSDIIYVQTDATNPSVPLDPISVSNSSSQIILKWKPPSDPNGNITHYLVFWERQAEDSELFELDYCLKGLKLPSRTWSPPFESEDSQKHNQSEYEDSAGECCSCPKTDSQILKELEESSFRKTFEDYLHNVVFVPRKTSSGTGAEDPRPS
Chain of Insulin receptor (P06213 763-1382 limits assumed): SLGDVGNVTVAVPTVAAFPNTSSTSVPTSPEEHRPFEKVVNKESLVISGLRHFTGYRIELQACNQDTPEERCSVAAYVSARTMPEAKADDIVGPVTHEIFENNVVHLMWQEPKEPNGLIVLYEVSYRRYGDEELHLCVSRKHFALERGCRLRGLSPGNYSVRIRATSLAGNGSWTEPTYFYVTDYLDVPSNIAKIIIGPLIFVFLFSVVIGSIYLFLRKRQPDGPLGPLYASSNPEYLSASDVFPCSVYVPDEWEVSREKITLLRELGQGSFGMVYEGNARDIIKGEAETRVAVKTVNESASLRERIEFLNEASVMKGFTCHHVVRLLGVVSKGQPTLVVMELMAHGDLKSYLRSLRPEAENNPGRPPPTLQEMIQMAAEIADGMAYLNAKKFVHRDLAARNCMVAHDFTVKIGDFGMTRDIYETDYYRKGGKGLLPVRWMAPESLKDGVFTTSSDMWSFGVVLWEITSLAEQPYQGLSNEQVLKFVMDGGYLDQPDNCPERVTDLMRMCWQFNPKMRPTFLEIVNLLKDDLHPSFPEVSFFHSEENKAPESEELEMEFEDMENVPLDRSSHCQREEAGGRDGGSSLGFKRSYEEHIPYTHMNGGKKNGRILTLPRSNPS
Chain of Hepatocyte growth factor receptor (Homo sapiens) (P08581 whole entry): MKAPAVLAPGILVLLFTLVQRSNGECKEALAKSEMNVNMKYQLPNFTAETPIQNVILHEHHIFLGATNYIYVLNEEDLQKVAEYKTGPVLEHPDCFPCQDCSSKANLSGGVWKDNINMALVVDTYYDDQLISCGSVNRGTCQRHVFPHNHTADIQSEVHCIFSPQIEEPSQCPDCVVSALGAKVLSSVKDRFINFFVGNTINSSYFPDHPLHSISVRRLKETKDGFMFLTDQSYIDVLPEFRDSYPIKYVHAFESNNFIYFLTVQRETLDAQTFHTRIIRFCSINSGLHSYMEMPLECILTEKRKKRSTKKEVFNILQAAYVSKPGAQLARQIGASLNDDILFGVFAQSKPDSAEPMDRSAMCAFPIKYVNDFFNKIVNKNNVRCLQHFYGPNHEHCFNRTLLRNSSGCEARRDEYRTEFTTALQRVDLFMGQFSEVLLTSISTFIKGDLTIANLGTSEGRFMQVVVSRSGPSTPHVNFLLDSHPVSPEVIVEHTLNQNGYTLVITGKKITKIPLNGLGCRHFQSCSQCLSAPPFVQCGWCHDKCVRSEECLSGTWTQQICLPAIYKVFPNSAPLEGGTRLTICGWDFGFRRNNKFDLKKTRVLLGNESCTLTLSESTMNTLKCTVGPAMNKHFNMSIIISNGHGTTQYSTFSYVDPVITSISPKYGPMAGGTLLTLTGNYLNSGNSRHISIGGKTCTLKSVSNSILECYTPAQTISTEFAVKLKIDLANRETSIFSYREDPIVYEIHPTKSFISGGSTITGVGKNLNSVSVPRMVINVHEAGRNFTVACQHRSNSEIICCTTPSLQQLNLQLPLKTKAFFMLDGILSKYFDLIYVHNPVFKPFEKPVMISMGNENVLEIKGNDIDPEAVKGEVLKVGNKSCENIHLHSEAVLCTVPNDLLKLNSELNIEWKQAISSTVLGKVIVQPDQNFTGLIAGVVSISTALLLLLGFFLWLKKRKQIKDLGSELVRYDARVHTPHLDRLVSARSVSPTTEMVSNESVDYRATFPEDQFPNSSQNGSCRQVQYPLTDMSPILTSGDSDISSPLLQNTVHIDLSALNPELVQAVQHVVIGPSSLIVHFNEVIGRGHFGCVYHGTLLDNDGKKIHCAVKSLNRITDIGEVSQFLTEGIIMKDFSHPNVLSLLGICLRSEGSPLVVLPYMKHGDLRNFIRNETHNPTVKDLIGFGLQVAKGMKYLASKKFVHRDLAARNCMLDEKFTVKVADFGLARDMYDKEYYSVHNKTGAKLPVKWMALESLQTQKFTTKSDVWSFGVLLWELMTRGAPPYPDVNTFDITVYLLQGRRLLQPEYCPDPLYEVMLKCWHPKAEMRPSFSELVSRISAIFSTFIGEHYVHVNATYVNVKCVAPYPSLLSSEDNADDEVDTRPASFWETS

| IC50 (Aurora kinase A) | further results | SMILES |
| --- | --- | --- |
| 470 nM |  | COc1cc2c(cc1OC)Oc1ncnc(Nc3cnc(NC(=O)c4ccccc4)nc3)c1NC2 |
| 970 nM |  | COc1ccc2c(c1)CNc1c(Nc3cnc(NC(=O)c4ccccc4)nc3)ncnc1O2 |
| > 10000 nM |  | COc1cccc2c1Oc1ncnc(Nc3cnc(NC(=O)c4ccccc4)nc3)c1NC2 |
|  | IC50 [1]: 900 nM | O=C(Nc1ccc2c(c1)CNc1cnc(Cl)nc1O2)Nc1ccc(Cl)c(C(F)(F)F)c1 |
|  | Activity [2]: inactive; Activity [3]: inactive; Activity [4]: inactive; Activity [5]: inactive; IC50 (Insulin receptor): 9500 nM; Activity [6]: inactive; IC50 [7]: 9500 nM; IC50 [1]: 450 nM; Activity [8]: inactive | O=C(Nc1ccc2c(c1)C=Nc1c(Cl)ncnc1O2)Nc1ccc(Cl)c(C(F)(F)F)c1 |
| 330 nM |  | COc1ccc2c(c1)Oc1ncnc(Nc3cnc(NC(=O)c4ccc(F)cc4)nc3)c1NC2 |
| 1100 nM |  | COc1cc2c(cc1OC)Oc1ncnc(Nc3cnc(NC(=O)c4cccc(F)c4)nc3)c1NC2 |
| 1100 nM |  | COc1ccc2c(c1)CNc1c(Nc3cnc(NC(=O)c4cccc(F)c4)nc3)ncnc1O2 |
| 3700 nM |  | Cc1ccc(C(=O)Nc2ncc(Nc3ncnc4c3NCc3ccccc3O4)cn2)cc1 |
| 1900 nM |  | O=C(Nc1ncc(Nc2ncnc3c2NCc2ccccc2O3)cn1)c1ccccc1 |
| 2200 nM |  | COc1cccc2c1CNc1c(Nc3cnc(NC(=O)c4ccccc4)nc3)ncnc1O2 |
| 3500 nM |  | COc1ccc2c(c1)CNc1c(Nc3cnc(NC(=O)c4ccc(C)cc4)nc3)ncnc1O2 |
|  | IC50 [1]: 13700 nM | O=C(Nc1ccc2c(c1)CNc1c(Cl)ncnc1O2)Nc1ccc(Cl)c(C(F)(F)F)c1 |
| 1200 nM |  | COc1cc2c(cc1OC)Oc1ncnc(Nc3cnc(NC(=O)c4ccc(C)cc4)nc3)c1NC2 |
| 5000 nM |  | CCN(CC)c1ccc2c(c1)Oc1ncnc(Nc3cnc(NC(=O)c4ccccc4)nc3)c1NC2 |
| 600 nM |  | COc1ccc2c(c1)Oc1ncnc(Nc3cnc(NC(=O)c4ccccc4)nc3)c1NC2 |
| 320 nM |  | COc1ccc2c(c1)Oc1ncnc(Nc3cnc(NC(=O)c4cccc(F)c4)nc3)c1NC2 |

From ChEMBL document CHEMBL1141862, “Pyrimido-oxazepine as a versatile template for the development of inhibitors of specific kinases” (Bioorg Med Chem Lett, 2005)
